Source: US20220202905A1, “COMPOSITION FOR PREVENTING OR TREATING NEUROTROPHIC KERATITIS WHICH CONTAINS PACAP PEPTIDE OR STABILIZED PACAP PEPTIDE” (SENJU PHARMACEUTICAL CO., LTD., priority 2019, published 2022)
Numbered stars: 1 amine (or outer) side, 2 acyl side, 3 side chain; on linkers, the order of the positions; unused ones are H or OH. Square brackets hold non-standard residues; d marks the D form. Peptide text beside a SMILES is read from it. Ala(1H-tetrazol-5-yl) = N[C@@H](Cc1nnn[nH]1)C(=O)O; X1 = O=C([C@H](CCc1nnn[nH]1)N[*:1])[*:2]; Nle = CCCC[C@H](N)C(=O)O

T1: PAC1R (Homo sapiens, UniProt P41586)
T1 construct: host or cells: CHO-K1
T1 sequence (P41586 21-468): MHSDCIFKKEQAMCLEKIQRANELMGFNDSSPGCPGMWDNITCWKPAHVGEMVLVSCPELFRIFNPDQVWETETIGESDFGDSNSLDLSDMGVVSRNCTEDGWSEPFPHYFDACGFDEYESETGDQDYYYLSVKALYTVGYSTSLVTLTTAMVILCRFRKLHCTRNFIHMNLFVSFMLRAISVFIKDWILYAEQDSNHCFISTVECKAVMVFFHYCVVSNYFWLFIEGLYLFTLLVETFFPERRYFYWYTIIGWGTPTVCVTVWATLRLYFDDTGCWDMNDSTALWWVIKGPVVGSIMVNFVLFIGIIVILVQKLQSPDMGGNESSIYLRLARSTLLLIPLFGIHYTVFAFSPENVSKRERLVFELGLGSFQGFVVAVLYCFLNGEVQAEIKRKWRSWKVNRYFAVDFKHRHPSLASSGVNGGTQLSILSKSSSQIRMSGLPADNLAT

T2: VPAC1R (Homo sapiens, UniProt P32241)
T2 construct: host or cells: CHO-K1
T2 sequence (P32241 31-457): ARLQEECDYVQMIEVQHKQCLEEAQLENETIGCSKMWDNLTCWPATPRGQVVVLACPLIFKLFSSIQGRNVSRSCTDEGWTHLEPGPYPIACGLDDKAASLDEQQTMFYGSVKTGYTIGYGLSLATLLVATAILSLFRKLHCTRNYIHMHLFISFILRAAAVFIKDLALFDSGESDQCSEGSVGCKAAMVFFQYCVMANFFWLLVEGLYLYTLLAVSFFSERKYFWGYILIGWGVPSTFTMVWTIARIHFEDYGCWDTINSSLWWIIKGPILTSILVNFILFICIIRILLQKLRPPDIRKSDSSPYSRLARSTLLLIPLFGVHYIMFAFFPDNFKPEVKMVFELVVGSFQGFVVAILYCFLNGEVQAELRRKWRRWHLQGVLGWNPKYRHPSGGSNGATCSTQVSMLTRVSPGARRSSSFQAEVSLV

T3: PAC1 receptor (UniProt P41586 21-468, limits assumed)
T3 sequence (looked up): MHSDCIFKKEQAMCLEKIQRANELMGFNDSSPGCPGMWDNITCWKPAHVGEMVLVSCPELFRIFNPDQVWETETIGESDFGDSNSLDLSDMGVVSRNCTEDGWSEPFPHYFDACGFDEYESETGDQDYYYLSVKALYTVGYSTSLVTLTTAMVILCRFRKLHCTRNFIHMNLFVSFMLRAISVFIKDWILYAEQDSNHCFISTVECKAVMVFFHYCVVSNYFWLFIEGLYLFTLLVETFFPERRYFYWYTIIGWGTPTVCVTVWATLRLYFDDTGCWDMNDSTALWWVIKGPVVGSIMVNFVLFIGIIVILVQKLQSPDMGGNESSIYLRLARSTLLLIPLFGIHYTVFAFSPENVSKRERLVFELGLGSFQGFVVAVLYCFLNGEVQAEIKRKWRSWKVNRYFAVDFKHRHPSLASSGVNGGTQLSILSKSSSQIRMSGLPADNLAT

T4: VPAC1 receptor (UniProt P32241 31-457, limits assumed)
T4 sequence (looked up): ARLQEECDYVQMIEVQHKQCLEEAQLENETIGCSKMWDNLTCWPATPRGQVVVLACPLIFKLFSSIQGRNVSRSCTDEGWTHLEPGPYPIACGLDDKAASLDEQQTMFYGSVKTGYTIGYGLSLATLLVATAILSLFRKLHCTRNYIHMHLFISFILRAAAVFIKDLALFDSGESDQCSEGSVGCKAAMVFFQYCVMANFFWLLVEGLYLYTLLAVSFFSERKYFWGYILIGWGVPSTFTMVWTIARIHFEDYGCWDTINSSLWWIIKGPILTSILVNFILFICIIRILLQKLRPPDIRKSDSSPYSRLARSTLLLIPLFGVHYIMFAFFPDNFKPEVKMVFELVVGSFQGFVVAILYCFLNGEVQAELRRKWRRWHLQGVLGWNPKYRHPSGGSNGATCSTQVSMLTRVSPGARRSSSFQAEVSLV


Tests used:
PAC1R = target: T1, PAC1R; assay: cAMP assay in PAC1R high-expressing CHO-K1 cell line; assay type: cell-based; details: cAMP inducing effect, CHO-K1 PAC1R high-expressing cells
Procedure: (§1) The cells were cultured for 18 to 24 hours at 37° C. in a 5% C02 incubator, adhering the cells to the plate. […] A 5-fold dilution series was then prepared with the same Cell assay buffer and used in an assay. The cAMP assay was carried out using a Hit Hunter cAMP Assay for Biologics kit (product of DiscoveRx, Cat. No. 90-0075LM25), according to the included kit instructions. […] Next, the culture medium was removed from the CHO-K1 cell culture plate, washing was performed with PBS, and the peptide-cAMP antibody liquid mixtures were added to the cells and incubated for 30 minutes under a 5% CO2 atmosphere at 37° C. A working detection solution was then added and the culture plate was shielded from light with aluminum foil and incubated at 25° C. for 1 hour. After incubation, Solution A was added and the culture plate was shielded from light with aluminum foil and then incubated at 25° C. for 3 hours. […] The obtained value for the Relative Luminescence Unit (RLU) was analyzed with GraphPad Prism Ver 6.05 (product of Graph Pad) and the EC50 value was calculated for each peptide. […] FIG. 2 and Table 11. […] A 5-fold dilution series was then prepared with the same Cell assay buffer and used in an assay. […] A 5-fold dilution series was then prepared with the same Cell assay buffer and used in an assay.

[1] = Peptide stability test, Tris buffer (pH 7.0), 60° C. storage, HPLC remaining rate; assay type: physicochemical; details: Table 7; 100 μM in Tris buffer pH 7.0
Procedure, shortened: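 Peptides at 100 μM in Tris buffer (pH 7.0) stored 1 or 2 weeks at 60° C.; unstored sample kept at −30° C. as initial reference. Remaining peptide quantified by reversed-phase HPLC at 220 nm (formic acid/acetonitrile gradient, 40° C. column), as water-corrected remaining rate.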

VPAC1R = target: T2, VPAC1R; assay: cAMP assay in VPAC1R high-expressing CHO-K1 cell line; assay type: cell-based; details: Table 12; cAMP inducing effect, CHO-K1 VPAC1R high-expressing cells
Procedure: as §1

PAC1 receptor = target: T3, PAC1 receptor; assay: cell-based or functional assay
VPAC1 receptor = target: T4, VPAC1 receptor; assay: cell-based or functional assay

Molecule | remaining rate after correction for water, 60° C., 1 week preservation [1] [%] | remaining rate after correction for water, 60° C., 2 weeks preservation [1] [%] | EC50 (VPAC1R) [nM] | other results
CCCC[C@H](NC(=O)[C@H](CCC(N)=O)NC(=O)[C@H](CCCCN)NC(=O)[C@H](CCCNC(=N)N)NC(=O)[C@H](Cc1ccc(O)cc1)NC(=O)[C@H](CCCNC(=N)N)NC(=O)[C@H](CO)NC(=O)[C@H](Cc1ccc(O)cc1)NC(=O)[C@H](CO)NC(=O)[C@H](Cc1nnn[nH]1)NC(=O)[C@@H](NC(=O)[C@H](Cc1ccccc1)NC(=O)[C@@H](NC(=O)CNC(=O)[C@H](Cc1nnn[nH]1)NC(=O)[C@H](CO)NC(=O)[C@@H](N)Cc1c[nH]cn1)[C@@H](C)CC)[C@@H](C)O)C(=O)N[C@@H](C)C(=O)N[C@H](C(=O)N[C@@H](CCCCN)C(=O)N[C@@H](CCCCN)C(=O)N[C@@H](Cc1ccc(O)cc1)C(=O)N[C@@H](CC(C)C)C(=O)N[C@@H](C)C(=O)N[C@@H](C)C(=O)N[C@H](C(=O)N[C@@H](CC(C)C)C(N)=O)C(C)C)C(C)C [Peptide 6] (H-HS[Ala(1H-tetrazol-5-yl)]GIFT[Ala(1H-tetrazol-5-yl)]SYSRYRKQ[Nle]AVKKYLAAVL-NH2) | – | – | – | EC50 (PAC1R; Table 11): 0.079 nM
CC[C@H](C)[C@H](NC(=O)CNC(=O)[C@H](Cc1nnn[nH]1)NC(=O)[C@H](CO)NC(=O)[C@H](Cc1c[nH]cn1)NC(C)=O)C(=O)N[C@@H](Cc1ccccc1)C(=O)N[C@H](C(=O)N[C@@H](Cc1nnn[nH]1)C(=O)N[C@@H](CO)C(=O)N[C@@H](Cc1ccc(O)cc1)C(=O)N[C@@H](CO)C(=O)N[C@@H](CCCNC(=N)N)C(=O)N[C@@H](Cc1ccc(O)cc1)C(=O)N[C@@H](CCCNC(=N)N)C(=O)N[C@@H](CCCCN)C(=O)N[C@@H](CCc1nnn[nH]1)C(=O)N[C@@H](CC(C)C)C(=O)N[C@@H](C)C(=O)N[C@H](C(=O)N[C@@H](CCCCN)C(=O)N[C@@H](CCCCN)C(=O)N[C@@H](Cc1ccc(O)cc1)C(=O)N[C@@H](CC(C)C)C(=O)N[C@@H](C)C(=O)N[C@@H](C)C(=O)N[C@H](C(=O)N[C@@H](CC(C)C)C(N)=O)C(C)C)C(C)C)[C@@H](C)O [Peptide 13] (Ac-HS[Ala(1H-tetrazol-5-yl)]GIFT[Ala(1H-tetrazol-5-yl)]SYSRYRK[X1]LAVKKYLAAVL-NH2) | 97.4 | 95.4 | 0.072 | –
Ac-HS[Ala(1H-tetrazol-5-yl)]AIFT[Ala(1H-tetrazol-5-yl)]SYSRYRKAAAVKKYLAAVL-NH2 (SMILES CC[C@H](C)[C@H](NC(=O)[C@H](C)NC(=O)[C@H](Cc1nnn[nH]1)NC(=O)[C@H](CO)NC(=O)[C@H](Cc1c[nH]cn1)NC(C)=O)C(=O)N[C@@H](Cc1ccccc1)C(=O)N[C@H](C(=O)N[C@@H](Cc1nnn[nH]1)C(=O)N[C@@H](CO)C(=O)N[C@@H](Cc1ccc(O)cc1)C(=O)N[C@@H](CO)C(=O)N[C@@H](CCCNC(=N)N)C(=O)N[C@@H](Cc1ccc(O)cc1)C(=O)N[C@@H](CCCNC(=N)N)C(=O)N[C@@H](CCCCN)C(=O)N[C@@H](C)C(=O)N[C@@H](C)C(=O)N[C@@H](C)C(=O)N[C@H](C(=O)N[C@@H](CCCCN)C(=O)N[C@@H](CCCCN)C(=O)N[C@@H](Cc1ccc(O)cc1)C(=O)N[C@@H](CC(C)C)C(=O)N[C@@H](C)C(=O)N[C@@H](C)C(=O)N[C@H](C(=O)N[C@@H](CC(C)C)C(N)=O)C(C)C)C(C)C)[C@@H](C)O) [Peptide 34] | – | – | – | EC50 (PAC1R), cAMP inducing effect (PAC1 receptor): 0.21 nM; EC50 (VPAC1R), cAMP inducing effect (VPAC1 receptor): 0.089 nM

Continued, in another order:

remaining rate after correction for water, 60° C., 1 week preservation [1] [%] | remaining rate after correction for water, 60° C., 2 weeks preservation [1] [%] | EC50 (VPAC1R) [nM] | Molecule | other results
97.3 | 94.9 | – | CC[C@H](C)[C@H](NC(=O)CNC(=O)[C@H](Cc1nnn[nH]1)NC(=O)[C@H](CO)NC(=O)[C@H](Cc1c[nH]cn1)NC(C)=O)C(=O)N[C@@H](Cc1ccccc1)C(=O)N[C@H](C(=O)N[C@@H](Cc1nnn[nH]1)C(=O)N[C@@H](C)C(=O)N[C@@H](Cc1ccc(O)cc1)C(=O)N[C@@H](CO)C(=O)N[C@@H](CCCNC(=N)N)C(=O)N[C@@H](Cc1ccc(O)cc1)C(=O)N[C@@H](CCCNC(=N)N)C(=O)N[C@@H](CCCCN)C(=O)N[C@@H](CCC(N)=O)C(=O)N[C@@H](CC(C)C)C(=O)N[C@@H](C)C(=O)N[C@H](C(=O)N[C@@H](CCCCN)C(=O)N[C@@H](CCCCN)C(=O)N[C@@H](Cc1ccc(O)cc1)C(=O)N[C@@H](CC(C)C)C(=O)N[C@@H](C)C(=O)N[C@@H](C)C(=O)N[C@H](C(=O)N[C@@H](CC(C)C)C(N)=O)C(C)C)C(C)C)[C@@H](C)O [Peptide 15] (Ac-HS[Ala(1H-tetrazol-5-yl)]GIFT[Ala(1H-tetrazol-5-yl)]AYSRYRKQLAVKKYLAAVL-NH2) | EC50 (PAC1R; Table 12): 0.061 nM
95.8 | 92.7 | 0.044 | CC[C@H](C)[C@H](NC(=O)CNC(=O)[C@H](Cc1nnn[nH]1)NC(=O)[C@H](CO)NC(=O)[C@H](Cc1c[nH]cn1)NC(C)=O)C(=O)N[C@@H](Cc1ccccc1)C(=O)N[C@H](C(=O)N[C@@H](Cc1nnn[nH]1)C(=O)N[C@@H](CO)C(=O)N[C@@H](Cc1ccc(O)cc1)C(=O)N[C@@H](CO)C(=O)N[C@@H](CCCNC(=N)N)C(=O)N[C@@H](Cc1ccc(O)cc1)C(=O)N[C@@H](CCCNC(=N)N)C(=O)N[C@@H](CCCCN)C(=O)N[C@@H](CCC(N)=O)C(=O)N[C@@H](CC(C)C)C(=O)N[C@@H](C)C(=O)N[C@@H](C)C(=O)N[C@@H](CCCCN)C(=O)N[C@@H](CCCCN)C(=O)N[C@@H](Cc1ccc(O)cc1)C(=O)N[C@@H](CC(C)C)C(=O)N[C@@H](C)C(=O)N[C@@H](C)C(=O)N[C@H](C(=O)N[C@@H](CC(C)C)C(N)=O)C(C)C)[C@@H](C)O [Peptide 19] (Ac-HS[Ala(1H-tetrazol-5-yl)]GIFT[Ala(1H-tetrazol-5-yl)]SYSRYRKQLAAKKYLAAVL-NH2) | –
